# “And” between values parts separate entries of the source, which are not always exact repeats. Equal values may be shown once. Bridge positions count the residues as written; N and C are the ends. Ends that are not written are not given here. Peptide text beside a SMILES is read from it.
# How the values were obtained:
# [1] = system: antibody obtained from protocol 2; experiment: Confirmatory assay (ELISA bridging assay with linaclotide competition); assay type: binding, rabbit; settings: 500 ng/mL antibody from protocol 2, 300 ng/mL SEQ ID NO: 8, 312 ng/mL SEQ ID NO: 9
# Excerpt: The initial bridging assay was developed using a biotinylated form of linaclotide, SEQ ID NO: 8, for antibody capture, and the linaclotide-tracer peptide, SEQ ID NO: 9, for detection on a streptavidin plate. […] A sheep anti-fluorescein antibody conjugated to HRP was used for detection of SEQ ID NO: 9 to enhance the signal over direct detection of the fluorescein moiety by ultraviolet-visible spectroscopy (UV/Vis). In this initial assay, the capture peptide (biotin-linaclotide), detection peptide (fluorescein-linaclotide), and anti-linaclotide antibodies were first incubated overnight in solution to allow complexes to form. These complexes were captured on a streptavidin plate, which was then washed. Bound complexes were detected with an HRP-conjugated anti-fluorescein antibody followed by addition of the HRP substrate and colorimetric detection.
# The confirmatory assay was developed as a variation of the ELISA-based bridging assay (Example 6) with competition using fluorescein for detection. The peptide antibody incubation mixture was spiked with native linaclotide, and the concentrations of positive control antibody, capture peptide, and detection peptide were kept constant.
# A binding curve was generated using Prism® v.
# [2] = system: anti-linaclotide antibodies obtained using protocol 2; experiment: Cross-reactivity competition assay; assay type: binding, rabbit; settings: 6.3 μg/mL peptide, 500 ng/mL antibody from protocol 2
# Excerpt: The cross-reactivity assay to test for cross-reactivity to the endogenous hormones, uroguanylin and guanylin, is a competition assay similar to the confirmatory assay (Example 7).
# To determine if the positive control antibody produced by protocol 2 could bind either of the endogenous hormones, uroguanylin or guanylin peptides were used in place of linaclotide in a competition assay similar to the confirmatory assay described in Example 7. During development, the IC80 concentration for linaclotide, 6.3 μg/mL, was chosen as a relevant test concentration for cross-reactivity because it is on the higher end of the linear range of the inhibition curve (FIG. 18). This concentration (6.3 μg/mL) is approximately 10,000 times the systemic circulating levels of uroguanylin and guanylin. A non-related peptide, C-type natriuretic peptide (CNP), was added as a negative control in this assay.
# [3] = system: positive control antibody produced by protocol 1; experiment: Bridging cross-reactivity assay with fluorescein-modified detection peptides; assay type: binding, rabbit; settings: 500 ng/mL antibody, 312 ng/mL SEQ ID NO: 8, 312 and 625 ng/mL fluorescein-modified peptides
# Excerpt: A bridging cross-reactivity assay similar to the screening assay (Example 6) was set up to detect direct binding of the positive control antibody to both linaclotide and uroguanylin or guanylin. For use as detection peptides, uroguanylin and guanylin were synthesized with fluorescein coupled to their N terminus (SEQ ID NO: 10 and SEQ ID NO: 12, respectively; Table 4). This cross-reactivity assay used SEQ ID NO: 8 (Table 4) as the capture peptide, just as in the screening assay, and either SEQ ID NO: 10 (for uroguanylin) or SEQ ID NO: 12 (for guanylin) as the detection peptide. Sheep anti-fluorescein HRP-conjugated antibody was used for detection of positive control antibodies. The antibody must directly bind both the linaclotide-capture peptide and uroguanylin or guanylin to generate a signal in the assay (FIG. 21). A fluorescein-modified PGC1a peptide was purchased for use as a negative control for cross-reactivity.
# This cross-reactivity assay was performed using 500 ng/mL of positive control antibody produced by protocol 1, 312 ng/mL of SEQ ID NO: 8, and 2 concentrations (312 and 625 ng/mL) of fluorescein-modified peptides for each set of reactions. […] Positive control antibody is excluded from blank incubations.
# [4] = Phase 2b studies for CC, four-week treatment period; cited from earlier work
# [5] = after oral administration at therapeutic dose levels; cited from earlier work
# [6] = system: positive control antibody; experiment: Direct-binding ELISA of linaclotide-tracer peptide; set-up: species or system rabbit; settings: anti-fluorescein antibody conjugated to HRP for detection
# Excerpt: Anti-fluorescein antibody conjugated to HRP was used to detect the linaclotide-tracer peptide, SEQ ID NO: 9. The signal increased with increasing antibody concentration.
# [7] = system: antibody produced by protocol 1; experiment: Direct-binding ELISA for cross-reactivity with immobilized biotinylated peptides; set-up: species or system rabbit
# Procedure: To further characterize the interactions between the positive control antibody and the cross-reacting peptides, a direct-binding ELISA experiment was conducted in which varying concentrations of biotinylated peptides (linaclotide, uroguanylin, and negative control parathyroid hormone [PTH]) were immobilized on the plate for antibody capture. The assay was performed using either sera from protocol 1 or anti-uroguanylin serum (Abcam ab52806) in ELISA buffer; no adequate control antibody to guanylin is available. HRP-anti-rabbit secondary antibody was used for the detection of anti-linaclotide antibodies, and HRP-anti-mouse secondary antibody was used for the detection of anti-uroguanylin antibodies from the antiserum. […] The signal for uroguanylin binding was approximately 15% of the signal obtained for linaclotide under the same conditions.
# [8] = system: rabbit anti-linaclotide antibody; experiment: Electrochemiluminescence bridging assay, specificity (cross-reactivity); assay type: binding; settings: individual human serum
# Procedure: The electrochemiluminescence assay was used as a validation of a method to detect anti-linaclotide antibodies in human serum using a MSD electrochemiluminescence protocol. Low positive control (LPC), high positive control (HPC), relative light units (RLU), coefficient of variation (CV) and confirmation cut points were determined using MSD procedures. The positive control antibodies used were the antibodies harvested from protocol 2.
# The assay is an immunogenicity bridging-based assay developed on MesoScale Discovery Electrochemiluminescence (ECL) technology. It is performed by first mixing a biotinylated-linaclotide analog, a sulfotag-labeled linaclotide analog, and the clinical sample together in a multi-well plate. The presence of anti-linaclotide antibodies in the clinical sample forms an immune complex with a biotin-labeled linaclotide analog and a sulfotag-labeled linaclotide analog. The immune complex is subsequently captured on a streptavidin coated MesoScale Discovery multi-well plate followed by a wash step. The captured immune complex is then detected by electrochemiluminescence generated by the sulfotag-labeled linaclotide portion of the immune complex. The signal generated by the sample is then compared to a pre-determined screening cut point to determine if the sample is positive for the presence of anti-linaclotide antibodies. Samples that are determined to be positive are subjected to a second immunogenicity confirmation assay which is performed by mixing a biotinylated-linaclotide analog, a sulfotag-labeled linaclotide analog, the clinical sample, and unlabeled linaclotide together in a multi-well plate. The immune complex is subsequently captured on a streptavidin-coated MesoScale Discovery multi-well plate followed by a wash step. The captured immune complex is then detected by electrochemiluminescence generated by the sulfotag-labeled linaclotide portion of the immune complex. The signal generated by the sample is then compared to a pre-determined confirmation assay cut point to determine if the sample is positive for the presence of anti-linaclotide antibodies. Samples that are confirmed positive by this assay are subsequently tested at different dilutions to determine the titer of the anti-linaclotide antibody.
# Specificity (cross-reactivity) of the assay was assessed by spiking ten drug-naive individual human serum samples containing rabbit anti-linaclotide antibody at the HPC (500 ng/mL) and the screening LPC (44 ng/mL) levels with 10 μg/mL Uroguanylin or Guanylin. At the same time, ten replicates of the antibody-spiked samples (without Uroguanylin or Guanylin) at each level were included to establish the % Inhibition. The following formula was used to calculate the % Inhibition for each individual:
# % Inhibition=[(1−(Drug with Antibody/Antibody alone)]*100
compound,measurement,setting,value
"C[C@@H]1NC(=O)[C@@H]2CCCN2C(=O)[C@H](CC(N)=O)NC(=O)[C@@H]2CSSC[C@H](N)C(=O)N[C@H]3CSSC[C@H](NC1=O)C(=O)N[C@@H]([C@@H](C)O)C(=O)NCC(=O)N[C@H](C(=O)N[C@@H](Cc1ccc(O)cc1)C(=O)O)CSSC[C@H](NC(=O)[C@H](Cc1ccc(O)cc1)NC(=O)[C@H](CCC(=O)O)NC3=O)C(=O)N2 [Linaclotide, C1C2EYC3C1NPAC2TGC3Y] (H-CCEYCCNPACTGCY-OH; disulfide 1-6, 2-10, 5-13)",50% inhibitory concentration (IC50),[1],1.4 µg/mL
same,80% inhibitory concentration (IC80),[1],6.3 µg/mL
same,inhibition of binding,[2],approximately 60%
same,signal in the direct-binding assay for cross-reactivity,[3],Only linaclotide was able to generate a positive signal
same,"effect on constipation, abdominal discomfort and bloating",[4],"reduced constipation, abdominal discomfort, and bloating"
same,levels seen systemically,[5],no detectable levels
Fluorescein-C1 C2 EYC3 C1 NPAC2 TGC3 Y [SEQ ID NO: 9],binding to the positive control antibody,[6],confirmed
"NNDC1 ELC2 VAVAC1 TGC2 L (NNDCELCVAVACTGCL; disulfide 4-12, 7-15; not fully specified (N-terminus); printed as NNDC1 ELC2 VAVAC1 TGC2 L) [Uroguanylin, endogenous hormone]",recognition by antibodies produced by protocol 2 (inhibition versus negative control CNP),[2],not recognized by antibodies produced by protocol 2
same,signal for binding relative to the signal obtained for linaclotide,[7]; 60 ng/mL antibody of protocol 1,approximately 15%
same,binding of antibody produced by protocol 1,"[7]; 60 ng/mL antibody of protocol 1, varying concentrations of biotinylated peptide, FIG. 20",binds to uroguanylin in a concentration-dependent manner
same,Percent Inhibition,"[8]; 10 μg/mL Uroguanylin, antibody at the HPC (500 ng/mL)",10.7% and 18.6% and 9.5% and −11.3% and 10.1% and −11.7% and −1.3% and −0.5% and 0.6% and 1.9%
same,Percent Inhibition,"[8]; 10 μg/mL Uroguanylin, antibody at the Screening LPC (44.0 ng/mL)",−6.6% and 18.4% and 15.7% and 4.8% and −3.8% and −1.5% and 3.2% and 5.1% and −0.5% and −4.1%
same,Antibody and 10 μg/mL Uroguanylin (signal),[8]; antibody at the HPC (500 ng/mL),147 and 151 and 145 and 164 and 162 and 185 and 180 (2×) and 169 and 157
same,Antibody and 10 μg/mL Uroguanylin (signal),[8]; antibody at the Screening LPC (44.0 ng/mL),59 (2×) and 39 and 44 and 52 (4×) and 51 and 53
"PGTC1 EIC2 AYAAC1 TGC2 (PGTCEICAYAACTGC; disulfide 4-12, 7-15; not fully specified (N-terminus); printed as PGTC1 EIC2 AYAAC1 TGC2) [Guanylin, endogenous hormone]",recognition by antibodies produced by protocol 2 (inhibition versus negative control CNP),[2],not recognized by antibodies produced by protocol 2
same,Antibody and 10 μg/mL Uroguanylin (signal),"[8]; Table 7 (Guanylin), antibody at the HPC (500 ng/mL)",225 and 199 and 179 and 177 and 174 and 181 and 155 and 135 and 130 and 239
same,Antibody and 10 μg/mL Uroguanylin (signal),"[8]; Table 7 (Guanylin), antibody at the Screening LPC (44.0 ng/mL)",71 and 57 (2×) and 55 (2×) and 54 and 53 (2×) and 63 and 51
same,Percent Inhibition,"[8]; Table 7 (Guanylin, 10 μg/mL), antibody at the HPC (500 ng/mL)",0.0% and 3.2% and 7.6% and −3.4% and 2.2% and −7.8% and −3.9% and −1.9% and −7.1% and −4.5%
same,Percent Inhibition,"[8]; Table 7 (Guanylin, 10 μg/mL), antibody at the Screening LPC (44.0 ng/mL)",−7.1% and 8.2% and 3.4% and 12.5% and 11.0% and 7.4% and 6.4% and 3.6% and 0.1% and 7.0%

# Reference: patent US20210261690A9, “Method of Generating Anti-Linaclotide Antibodies and Uses Thereof” (Ironwood Pharmaceuticals, Inc., priority 2018, published 2021)
